# Experimental data as given in paper PMC5571044 (Scientific Reports, 2017).
# Tests used:
# PB2long N510T mutant = type: binding, influenza A/Udorn/307/1972(H3N2)
# [1] = system: FluA Udorn replicon with PB2 N510T; type: cell-based, influenza A/H3N2/Udorn/72 in 293 T cells
structure (smiles),measurement,setting,value
O=C(O)[C@H]1C2CCC(CC2)[C@@H]1Nc1nc(-c2c[nH]c3ncc(F)cc23)ncc1F [VX-787],"KD fold change, PB2long N510T",PB2long N510T mutant,90 fold
same,"fold loss of cellular EC50, N510T vs WT replicon",[1],90 fold
